Measurements reported in ChEMBL document CHEMBL1201862, “PubChem BioAssay data set” (2004).
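Compound exposure: 48 hours, 5 concentrations, 96-well plates. Abbreviation: GI50, concentration required for 50% inhibition of growth.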 Activity calls are given as the source filed them. No stated cut-off is given here; in the data, active = GI50 up to about 1.1 µM and inactive = higher.

Experiments:
Test in all cases: inhibition of tumour cell growth, NCI panel, 48 h
[1] = tested on: RXF 393
[2] = tested on: IGROV-1
[3] = tested on: SN12C
[4] = tested on: MOLT-4
[5] = tested on: SF-539
[6] = tested on: RPMI-8226
[7] = tested on: SW-620
[8] = tested on: HOP-62
[9] = tested on: SK-MEL-5
[10] = tested on: NCI-H460
[11] = tested on: Hs-578T
[12] = tested on: HT-29
[13] = tested on: CAKI-1
[14] = tested on: SR
[15] = tested on: OVCAR-8
[16] = tested on: A549
[17] = tested on: ACHN
[18] = tested on: U-251
[19] = tested on: HOP-92

Measured: GI50

CC1C[C@]2(C)C(=O)N(c3ccccc3)C(=N)[C@@H]2N(C)c2ccccc21 (stereo partly drawn)
inactive: [1] > 100 µM | [2] > 100 µM | [3] 10.8 µM | [4] > 100 µM | [5] > 100 µM | [6] > 100 µM | [7] > 100 µM | [8] > 100 µM | [9] > 100 µM | [10] > 100 µM | [11] > 100 µM | [12] > 100 µM | [13] > 100 µM | [14] > 100 µM | [15] > 100 µM | [16] > 100 µM | [17] > 100 µM

COc1c2c(c3c(c1OC)c(=O)c1ccccc1n3C)OCO2
inactive: [18] > 100 µM | [2] > 100 µM | [3] > 100 µM | [4] > 100 µM | [5] > 100 µM | [6] > 100 µM | [7] > 100 µM | [8] > 100 µM | [9] > 100 µM | [10] 36.1 µM | [11] > 100 µM | [12] > 100 µM | [13] > 100 µM | [14] > 100 µM | [15] > 100 µM | [16] > 100 µM | [17] > 100 µM | [19] > 100 µM

CCOC(=O)c1cc(-c2ccc([N+](=O)[O-])cc2)c([N+](=O)[O-])[nH]1
inactive: [1] 2.18 µM | [18] 3.46 µM | [2] 5.26 µM | [3] > 10 µM | [4] 3.77 µM | [5] > 10 µM | [10] 2.26 µM | [11] 3.34 µM | [12] 2.69 µM | [14] 1.76 µM | [15] 4.24 µM | [16] 2.88 µM | [17] 3.28 µM | [19] 1.22 µM

O=C(c1nsc(Cl)c1Cl)N1CCCCC1
inactive: [1] > 100 µM | [18] > 100 µM | [2] > 100 µM | [3] > 100 µM | [4] > 100 µM | [5] > 100 µM | [6] > 100 µM | [7] > 100 µM | [8] > 100 µM | [9] > 100 µM | [11] > 100 µM | [12] > 100 µM | [13] > 100 µM | [14] > 100 µM | [15] > 100 µM | [16] > 100 µM

CC(CC(=O)O)(CC(=O)O)c1ccccc1
inactive: [1] > 100 µM | [18] > 100 µM | [2] > 100 µM | [3] > 100 µM | [6] > 100 µM | [7] > 100 µM | [8] > 100 µM | [9] > 100 µM | [10] > 100 µM | [11] > 100 µM | [12] > 100 µM | [13] > 100 µM | [14] > 100 µM | [15] > 100 µM | [16] > 100 µM | [17] > 100 µM | [19] > 100 µM

CC(=O)OC1(C)C=CC(=O)C=C1
inactive: [18] 13.3 µM | [2] 12.9 µM | [3] 62.7 µM | [4] 30.3 µM | [5] 18.3 µM | [6] 37.3 µM | [7] 60.4 µM | [8] 27.1 µM | [9] 40.2 µM | [10] 25.9 µM | [11] 61.7 µM | [12] 63.5 µM | [13] 46 µM | [14] 32.7 µM | [15] 24.7 µM | [16] > 100 µM | [17] 17.5 µM | [19] 39 µM

CCN(CC)C(=O)N[C@@H](Cc1ccccc1)C(=O)NC
inactive: [1] > 100 µM | [18] > 100 µM | [2] > 100 µM | [3] > 100 µM | [4] > 100 µM | [6] > 100 µM | [7] > 100 µM | [8] > 100 µM | [9] > 100 µM | [10] > 100 µM | [11] > 100 µM | [12] > 100 µM | [13] > 100 µM | [14] > 100 µM | [15] > 100 µM | [16] > 100 µM | [17] > 100 µM

C=C1C(=O)O[C@H]2[C@H]1CC(=O)/C(C)=C/CC[C@@]1(C)O[C@@H]21
active: [1] 0.44 µM | [7] 0.324 µM | [9] 0.973 µM | [13] 0.53 µM | [14] 0.541 µM | [17] 0.461 µM | [19] 0.74 µM
inactive: [18] 5 µM | [2] 2.04 µM | [3] 1.66 µM | [5] 2.08 µM | [8] 8.36 µM | [10] 10.9 µM | [11] 2.4 µM | [12] 1.13 µM | [15] 2.01 µM | [16] 12.7 µM

CC(=O)OC1C(COC(=O)c2ccccc2)OC(Nc2ncc(-c3ccc(Br)cc3)s2)C(OC(=O)c2ccccc2)C1OC(=O)c1ccccc1 (stereo not drawn)
inactive: [1] > 100 µM | [18] > 100 µM | [2] > 100 µM | [3] > 100 µM | [4] > 100 µM | [6] > 100 µM | [7] > 100 µM | [8] > 100 µM | [9] > 100 µM | [10] > 100 µM | [11] > 100 µM | [12] > 100 µM | [14] > 100 µM | [15] > 100 µM | [16] > 100 µM | [17] > 100 µM | [19] 93.1 µM

Cc1ccc(C(=O)NN=C(/N=N/c2cccc(C)c2)c2ccc(N(C)C)cc2)cc1
inactive: [18] > 100 µM | [2] > 100 µM | [3] > 100 µM | [4] > 100 µM | [5] > 100 µM | [6] > 100 µM | [7] > 100 µM | [9] > 100 µM | [10] > 100 µM | [11] > 100 µM | [12] > 100 µM | [13] > 100 µM | [14] > 100 µM | [15] > 100 µM | [16] > 100 µM | [17] > 100 µM | [19] 51.8 µM

COC(=O)C1=C(O)c2ccc(Cl)cc2S(=O)(=O)N1C
inactive: [1] > 100 µM | [18] 81.3 µM | [2] 78 µM | [3] > 100 µM | [4] > 100 µM | [6] 80.7 µM | [7] 80.2 µM | [8] > 10 µM | [9] 97.1 µM | [10] 45.3 µM | [11] > 100 µM | [12] > 100 µM | [13] > 100 µM | [14] > 100 µM | [16] 44.4 µM | [17] > 100 µM | [19] 59 µM

CC(C)(C)[Si](C)(C)OCC1OC(n2cc(F)c(=O)[nH]c2=O)CC1O[Si](C)(C)C(C)(C)C (stereo not drawn)
inactive: [1] 4.42 µM | [18] 8.65 µM | [2] 6.71 µM | [3] 2.89 µM | [4] 3.98 µM | [5] 13.6 µM | [6] 3.5 µM | [7] 9.93 µM | [8] 13.2 µM | [9] 3.27 µM | [10] 2.4 µM | [11] 11.1 µM | [12] 7.19 µM | [13] 12.5 µM | [14] 3.1 µM | [15] 16.1 µM | [16] 10.5 µM | [17] 10.1 µM
